Publication PMC10780244, “Antileishmanial Effect of 1,5- and 1,8-Substituted Fused Naphthyridines” (Molecules, 2023)

Tests used:
[1] = system: axenic iRFP-L. infantum amastigotes from bone marrow cells; experiment: Axenic amastigote viability assay (iRFP fluorescence, first screening); assay type: cell-based; conditions: Leishmania infantum, Bone marrow cell, cut-off 25 µM, 72 h, read-out: Axenic Amastigotes (concentration with inhibition)
Procedure: (§1) The 1,5- and 1,8-fused naphthyridine derivatives were evaluated as antileishmanial agents in assays using two forms of L. infantum amastigotes: axenic amastigotes recovered from bone marrow cells of infected BALB/c mice and intramacrophagic amastigotes obtained from splenic explants of the same subjects. The L. infantum strain used is a genetically modified strain previously engineered by our group to constitutively express the infrared protein iRFP from Rhodopseudomonas palustris bacteriophytochrome (iRFP L. infantum). This strain allows monitoring the viability of both forms of the parasite by quantifying the fluorescence emitted at 700 nm by the iRFP protein produced by living amastigotes.
(§2) Amastigotes obtained from mouse bone marrow cells were used to perform a first screening with the complete series of fused 1,5- and 1,8-naphthyridines. […] The toxicity of these selected compounds was assessed in non-infected splenic cells and the cytotoxic concentration (CC50) value obtained was used to calculate the selective index (SI). The oral tolerability of these same compounds was tested by calculating the viability of murine intestinal organoids exposed to two concentrations (50 and 25 µM).
To obtain iRFP-L. infantum axenic amastigotes, femur and tibia were carefully cut at both ends, and marrow cells were removed by passing PBS through the medullary cavity with a 29G needle. The bone marrow cell suspension was filtered through a 100 µm cell strainer and centrifuged at 3500× g for 10 min at room temperature. After centrifugation, cells were resuspended in amastigote culture medium: 15 mM KCl; 136 mM KH2PO4; 10 mM K2HPO4·3H2O; 0.5 mM MgSO4. 7H2O; 24 mM NaHCO3; 22 mM glucose; 1 mM glutamine, 1xRPMI 1640 vitamin mix (Sigma-Aldrich, Merck, Darmstadt, Germany), 10 mM folic acid, 100 mM adenosine, 1xRPMI amino acid mix (Sigma-Aldrich, Merck, Darmstadt, Germany), 5 mg/mL hemin, antibiotic cocktail, 25 mM MES and 10% FBS, and incubated at 37 °C.
To test the antileishmanial effect of naphthyridines on axenic amastigotes, 40 μL of a suspension containing 3 × 10^4 iRFP-L. infantum parasites per well were incubated with another 40 μL of the drugs dilutions in amastigote culture medium with 7.5% FBS. Incubations were performed in 384-well black microtiter plates with an optical bottom at 37 °C and 5% CO2 for 72 h. Solutions of 0.1% (v/v) DMSO and 10 μM AMB were used as negative and positive controls, respectively. The assays were performed by triplicate.
(§3) The viability of axenic and intramacrophage amastigotes was calculated measuring the fluorescence emitted at 700 nm by the iRFP protein from live parasites and recorded by an Odyssey infrared imaging system (Li-Cor, NE, USA). The fluorescence emitted by the negative control wells was considered 100% viability, whereas the fluorescence emitted by the positive control wells, was adjusted to 0% viability.

[2] = system: intramacrophagic iRFP-L. infantum amastigotes from murine spleens; experiment: Ex vivo intramacrophagic amastigote viability assay (iRFP fluorescence); assay type: cell-based, Leishmania infantum; conditions: for EC50: Leishmania infantum, ex vivo murine splenic explants, 72 h, read-out: Intracellular Amastigotes EC50; for antileishmanial activity against Leishmania amastigotes (in words): summary in discussion
Procedure: as §1, §2
Intramacrophagic amastigotes were obtained by cutting spleens into small pieces that were incubated for 25 min with 0.5 mL of collagenase D (2 mg/mL) (Merck, Darmstadt, Germany) dissolved in 4.5 mL buffer (10 mM HEPES, pH 7.4, 150 mM NaCl, 5 mM KCl, 1 mM MgCl2 and 1.8 mM CaCl2). The cell suspension was filtered through a 100 µm cell strainer. After erythrocyte lysis (150 mM NH4Cl, 1 mM KHCO3, 0.1 mM EDTA), splenocytes were centrifuged three times at 500× g for 7 min at 4 °C, with PBS washes between each centrifugation. The splenocyte suspension containing intramacrophagic amastigotes was resuspended in RPMI medium (Gibco, Fisher Scientific, Waltham, MA, USA) supplemented with 20% FBS, 1 mM sodium pyruvate, 24 mM NaHCO3, 2 mM L-glutamine, 1× RPMI vitamins, 25 mM HEPES and antibiotic cocktail.
For the ex vivo intramacrophagic amastigote assay, 40 μL of one-half or one-third serial dilutions of each diluted in supplemented RPMI medium, were added to black 384-well optical-bottom black plates containing 40 μL of murine splenocytes obtained as described above. Positive controls (containing 10 μM of AMB) and negative controls (containing 0.1% v/v DMSO) were included. The plates were incubated at 37 °C and 5% CO2, for a maximum period of 72 h and the assays were performed by triplicate.
as §3
Fluorescence emitted by intramacrophage amastigotes were plotted against the drug concentration using the nonlinear fit analysis provided by the Sigma Plot 10.1 statistical package to obtain EC50 values.

[3] = system: recombinant human DNA topoisomerase IB (hTopIB); set-up: method as in PMID 31229877, PMID 32279049, PMID 33962152; dose or concentration left out as unconfirmed; conditions: cited from earlier work
two cancer cell lines = system: two cancer cell lines; set-up: method as in PMID 31229877, PMID 32279049, PMID 33962152; conditions: cited from earlier work
[4] = Cytotoxicity in uninfected murine splenic cells (alamarBlue); assay type: cell-based, mouse; conditions: mouse; uninfected splenic cells, 72 h, alamarBlue; read-out: Mouse Splenic Macrophages CC50
Procedure: (§4) Amastigotes obtained from mouse bone marrow cells were used to perform a first screening with the complete series of fused 1,5- and 1,8-naphthyridines. […] The toxicity of these selected compounds was assessed in non-infected splenic cells and the cytotoxic concentration (CC50) value obtained was used to calculate the selective index (SI). The oral tolerability of these same compounds was tested by calculating the viability of murine intestinal organoids exposed to two concentrations (50 and 25 µM). In order to assess the in vitro safety of the naphthyridines, cytotoxicity assays were carried out in ex vivo splenic explants from uninfected mice, which were prepared as previously described to obtain intramacrophagic amastigotes. Cells were seeded at a density of 1 × 10^6 cells per well in 96-well plates containing the prediluted compounds and incubated at 37 °C and 5% CO2 during 72 h. AlamarBlue assay (Invitrogen, Fisher Scientific, Waltham, MA, USA) was used to estimate cell viability following manufacturer’s recommendations. The assays were performed by triplicate. Absorbance of viable cells vs. compound concentrations were fitted by nonlinear analysis using the Sigma Plot 10.1 statistical package to calculate the cytotoxic concentration 50 (CC50) values. Selectivity index (SI) was calculated as the ratio between CC50 and the EC50 values of intramacrophagic amastigotes.

[5] = system: mouse splenic macrophages; experiment: as above; assay type: cell-based; conditions: summary in discussion
Procedure: as §4

[6] = system: leishmanial DNA topoisomerase IB (LdTopIB); experiment: Relaxation of supercoiled plasmid DNA assay; assay type: biochemical, Leishmania; conditions: 100 μM of compounds, 1 min at 37 °C, in words
Procedure: page 2: DNA DMSO 6b8a8b8c9b10b11a13a13b14a7c8d15b Relaxationof supercoiled plasmid DNA assay. Each reaction contains one unit of purified leishmanial DNA topisomeraseIB enzyme (LdTopIB), 100 μM ofcompounds, 0.5μg of supercoiled […], 10 mM Tris-HCl buffer pH 7.5, 5 mM MgCl 2, 0.1 mM EDTA, 15 μg/mL bovine serum albumin, 150 mM KCl. Reaction mixtures were incubated 1 min at 37 °C and stopped by the addition of 4 μL loading buffer (5% sarkosyl, 0.12% bromophenol blue, 25% glycerol). The topoisomerswere resolved in 1% agarose gels by electrophoresis in 0.1 M Tris borate EDTA buffer (pH 8.0) at 2 V/cm for 16 h and visualized with UV illumination after ethidium bromide (0.5μg/mL) staining. […]

Row | SMILES | minimal effective concentration [1] | EC50 [2] | other results
1 | c1ccc([C@@H]2c3ncccc3NC3c4ccccc4OCC32)cc1 (stereo partly shown) [Compound 4a] | > 25 µM |  | 
2 | COc1ccc2c(n1)[C@@H](c1ccccc1)C1COc3ccccc3C1N2 (stereo partly shown) [Compound 4c] | > 25 µM |  | 
3 | c1ccc(-c2c3c(nc4cccnc24)-c2ccccc2OC3)cc1 [Compound 5a] | > 25 µM |  | 
4 | Brc1ccc2nc3c(c(-c4ccccc4)c2n1)COc1ccccc1-3 [Compound 5b] | > 25 µM |  | 
5 | COc1ccc2nc3c(c(-c4ccccc4)c2n1)COc1ccccc1-3 [Compound 5c] | > 25 µM |  | 
6 | O=C1Oc2ccccc2C2Nc3cccnc3[C@@H](c3ccccc3)C12 (stereo partly shown) [Compound 6a] | > 25 µM |  | 
7 | COc1ccc2c(n1)[C@@H](c1ccccc1)C1C(=O)Oc3ccccc3C1N2 (stereo partly shown) [Compound 6c] | > 25 µM |  | 
8 | O=c1oc2ccccc2c2nc3cccnc3c(-c3ccccc3)c12 [Compound 7a] | > 25 µM |  | 
9 | O=c1oc2ccccc2c2nc3ccc(Br)nc3c(-c3ccccc3)c12 [Compound 7b] | > 25 µM |  | 
10 | Cc1ccc(S(=O)(=O)N2Cc3c(nc4cccnc4c3-c3ccccc3)-c3ccccc32)cc1 [Compound 9a] | > 25 µM |  | 
11 | COc1ccc2nc3c(c(-c4ccccc4)c2n1)CN(S(=O)(=O)c1ccc(C)cc1)c1ccccc1-3 [Compound 9c] | > 25 µM | > 20 µM | 
12 | Cc1ccc(S(=O)(=O)N2Cc3c(nc4ccc(Br)nc4c3-c3ccccc3)-c3ccccc32)cc1 [Compound 9d] | > 25 µM | > 20 µM | 
13 | c1ccc([C@@H]2c3cccnc3NC3c4ccccc4OCC32)cc1 (stereo partly shown) [Compound 10a] | > 25 µM | > 20 µM | antileishmanial activity against Leishmania amastigotes (in words) [2]: not effective against Leishmania amastigotes; inhibitory effect on DNA relaxation activity of hTopIB [3]: had an inhibitory effect on DNA relaxation activity; cytotoxic effects on two cancer cell lines (concentration range) (two cancer cell lines): 1 to 15 µM
14 | Cc1ccc2c(c1)C1Nc3ncccc3[C@@H](c3ccccc3)C1CO2 (stereo partly shown) [Compound 10c] | > 25 µM | > 20 µM | 
15 | Fc1ccc2c(c1)-c1nc3ncccc3c(-c3ccccc3)c1CO2 [Compound 11b] | > 25 µM | > 20 µM | 
16 | COc1ccc(-c2c3c(nc4ncccc24)-c2ccccc2OC3)cc1 [Compound 11c] | > 25 µM | > 20 µM | 
17 | O=C1Oc2ccccc2C2Nc3ncccc3[C@@H](c3ccccc3)C12 (stereo partly shown) [Compound 12a] | > 25 µM | > 20 µM | 
18 | O=C1Oc2ccccc2C2Nc3ncc(Br)cc3[C@@H](c3ccccc3)C12 (stereo partly shown) [Compound 12b] | > 25 µM | > 20 µM | 
19 | O=c1oc2ccc(F)cc2c2nc3ncccc3c(-c3ccccc3)c12 [Compound 13c] | > 25 µM | > 20 µM | 
20 | Cc1ccc(S(=O)(=O)N2Cc3c(nc4ncccc4c3-c3ccccc3)-c3ccccc32)cc1 [Compound 15a] | < 25 µM | 67.4 ± 9.78 µM | SI ([2]; ratio CC50 (splenic macrophages) / EC50 (intramacrophagic amastigotes)): 0.1; antileishmanial activity against Leishmania amastigotes (in words) [2]: significant antileishmanial activity; CC50 at 72 h [4]: 8.78 ± 2.21 µM; toxicity (in words) [5]: significant toxicity; LdTopIB inhibitory activity [6]: did not show leishmanial DNA topoisomerase IB (LdTopIB) inhibitory activity; inhibitory effect on DNA relaxation activity of hTopIB [3]: had an inhibitory effect on DNA relaxation activity; cytotoxic effects on two cancer cell lines (concentration range) (two cancer cell lines): 1 to 15 µM
